Data from US4727072A, “3-alkoxy-2-aminopropylamines compositions and use as cardiovascular agents” (McNeilab, Inc., priority 1986, dated 1988).
Structures can show the parent of a compound that is named as a salt.

How the values were obtained:
[1] = test system: coronary arteries (Langendorff's isolated heart); test: Langendorff's isolated heart preparation (dilation of coronary arteries)
Protocol: In addition to their utility in the treatment of hypertension, the compounds of formula (I) are useful in the treatment of the symptoms of angina pectoris by virtue of their ability to dilate coronary arteries. Their activity was measured using the "Langendorff's isolated heart" preparation. This test has been described in "Pharmacological Experiments on Isolated Preparations". Staff of the Department of Pharmacology, University of Edinbourgh, 2nd Ed., Churchill Livingstone, N.Y., 1970, pp. 112-119. The test compounds were administered at concentrations of 30.0, 10.0, 3.0, 1.0, 0.3, 0.1, 0.03, and 0.01 micromolar (10^-6 molar).

[2] = test system: spontaneously hypertensive rats; test: Spontaneously Hypertensive Rat (SHR) test, arterial pressure; assay type: in vivo, adult spontaneously hypertensive rats (Charles Rivers); conditions: SH rats, fall of mean arterial pressure
Protocol: The activity of compounds of formula (I) for the treatment of hypertension was determined using the Spontaneously Hypertensive Rat (SHR) test as described below. In this test, the arterial pressure of adult spontaneously hypertensive rats (Charles Rivers) is monitored directly via an aortic cannula. The SH rats are anesthetized with an inhalation anesthetic (ether). The left carotid artery is isolated and cannulated. The tip of the cannula is advanced to the aorta and the cannula is exteriorized behind the neck at the level of the scapula. Animals are placed in individual cages and allowed to recover from the anesthetic and are kept unrestrained. The arterial cannula is connected to the pressure transducer which is attached to the recorder. The test compounds are administered to at least 3 rats at doses selected in the range of 0.1 to 100 mg/kg of body weight by intraperitoneal (i.p.) or oral (p.o.) routes of administration. The arterial pressure and heart rate are monitored for a minimum of 24 hr. A test compound is considered to be active as an antihypertensive agent if the mean arterial pressure (MAP) indicates a fall of >15 mm of Hg. Each animal serves as its own control.

Mongrel dogs = test: Myocardial Oxygen Supply and Demand (dog) Test; assay type: in vivo; conditions: i.v., anesthetized dog; for increasing coronary blood flow: p<0.05
Protocol: The activity of compounds of formula (I) in the treatment of angina was also determined using the Myocardial Oxygen Supply and Demand (dog) Test as described below.
Mongrel dogs of either sex weighing between 8.4 and 12.3 kg were used for this study. These dogs were obtained from Haycock Farm, Quakertown, PA. They were anesthetized with pentabarbitol Na and ventilated with a Harvard positive pressure respirator (Model 607 , Dover, MA) to maintain their blood pH and gaseous tension within physiological ranges. Heparin-filled polyethylene catheters were implanted into the right femoral artery (PE-260) and the right atrium (PE-180) for the measurement of their respective pressures. The right femoral vein was cannulated with a heparin-filled polyethylene catheter (PE-200) for drug infusion. A thoracotomy was then performed via the left fifth intercostal space. The left circumflex coronary artery was isolated from surrounding fascia and an electromagnetic flow transducer (I.D.=2.0 mm, Gould Statham Inc. Oxnard, CA) placed around it for the measurement of coronary blood flow. A Delmed intravenous catheter (18.5 ga.×8 in., Canton, MA) was inserted into the coronary sinus via a puncture wound made by an 18 ga. needle for coronary venous effluent blood sampling. Arterial oxygen samples were taken from the femoral arterial catheters. Total content of oxygen in whole blood was measured by the Lex-02-Con-TL (Lexington Instruments Corp., Waltham, MA). Myocardial oxygen consumption was estimated by the product of the difference in arterial and coronary sinus oxygen content and coronary blood flow through the left circumflex coronary artery. These techniques have been used extensively to study the effects of calcium channel blockers on myocardial oxygen supply and demand in various animal models. References for these techniques include Jolly, S. R. and Gross, G. J. Effect of FR 7534, A New Calcium Antagonist, On Myocardial Oxygen Demand. Euro. J. Pharm. 54: 289-293, (1979); Ono, H., Ohara, N. and Hashimoto, K. Effect of an Anti-Anginal Drug, Perhexiline, on Myocardial Oxygen Consumption in Anesthetized Open-Chest Dogs Compared With Verapamil and Glyceryl Trinitrate. Jap. Cir. J. 46: 559-567 (1982); and Vater, W. and Schlossman, K. Effects of Nifedipine on the Hemodynamics and Oxygen Consumption of the Heart in Animal Experiments, in: Jatene and Lichtlen, 3rd International Adalat Symposium: New Therapy of Ischemic Heart Disease (Exerpta Medica, Amsterdam, Oxford), p. 33, (1975). Arterial blood pH and gaseous tension were measured by a Corning pH/blood gas analyzer (Model 168, Medfield, MA). Arterial and atrial pressures were measured by connecting their respective catheters to Statham strain-gauge manometers (P23D, Gould Inc., Oxnard, CA). Gould-Statham electromagnetic blood flowmeters (Model SP2202, Oxnard, CA) were used to measure coronary blood flow. Lead II of the EKG was monitored continuously through subcutaneous insertion of stainless steel needle electrodes on the body surface of the animal. The EKG was recorded by a Grass oscillograph (Model 7D, Quincy, MA) with an EKG-pulse pre-amplifier (Model 7P6C) and a Polygraph D.C. driver amplifier (Model 7DAG). All the other recorded variables, i.e., arterial pressure, right atrial pressure and coronary blood flow were recorded by the Grass oscillograph. Coronary vascular resistance was calculated as the quotient of the difference in mean pressure (arterial-right atrial) and left circumflex blood flow. […]

Row | Compound | EC30 [1] [nM] | SHR δMAP ([2]; dose 10 (mg/kg), ip) | SHR δMAP ([2]; dose 30 (mg/kg), po) | further results
1 | CC(C)(C)COCC(CN(Cc1ccccc1)c1ccccc1Cl)N1CCCC1.Cl (stereo not drawn) [Example 3b, N-(2-Chlorophenyl)-beta-[(2,2-dimethylpropoxy)methyl]-N-(phenylmethyl)-1-pyrrolidineethanamine Hydrochloride (1:1)] | 27 | -52 mm of Hg | -6 mm of Hg | 
2 | CC(C)(C)COCC(CN(Cc1ccccc1)c1cccc(C(F)(F)F)c1)N1CCCC1.Cl (stereo not drawn) [Example 9b, beta-[(2,2-Dimethylpropoxy)methyl]-N-(phenylmethyl)-N-[3-(trifluoromethyl)phenyl]-1-pyrrolidineethanamine Hydrochloride] | 20 |  | -28 mm of Hg | 
3 | CC(C)(C)OCC(CN(Cc1ccccc1)c1c(Cl)cccc1Cl)N1CCCC1 (stereo not drawn) [Example 13, N-(2,6-Dichlorophenyl)-beta[ (1,1-dimethylethoxy)methyl]-N-(phenylmethyl)-1-pyrrolidineethanamine Hydrochloride (1:1)] | 4.3 | -74 mm of Hg | -20 mm of Hg | 
4 | CC(C)(C)COCC(CN(Cc1ccccc1)c1ccccc1)N1CCCC1 (stereo not drawn) [Example 10, β-[(2,2-Dimethylpropoxy)methyl]-N-phenyl-N-(phenylmethyl)-1-pyrrolidineethanamine (E)-2-Butenedioate (1:1)] | 5 | -28 mm of Hg | -13 mm of Hg | 
5 | CC1(COCC(CN(Cc2ccccc2)c2c(Cl)cccc2Cl)N2CCCC2)CCCCC1.Cl (stereo not drawn) [Example 1e, N-(2,6-Dichlorophenyl)-beta-[[(1-methylcyclohexyl)methoxy]methyl]-N-(phenylmethyl)-1-pyrrolidineethanamine hydrochloride(1:1)] | 4.6 |  | -60 mm of Hg | decreased arterial pressure (Mongrel dogs; 0.25 mg/kg): 8%; increasing coronary blood flow (Mongrel dogs; 0.25 mg/kg): 80%; decreased arterial pressure (Mongrel dogs; 0.50 mg/kg): 15%; increasing coronary blood flow (Mongrel dogs; 0.50 mg/kg): 221%; myocardial oxygen supply/demand ratio (Mongrel dogs; 0.25 and 0.50 mg/kg): markedly increased
6 | Cc1cccc(C)c1N(Cc1ccccc1)CC(COCC(C)(C)C)N1CCCC1.Cl (stereo not drawn) [Example 8b, N-(2,6-Dimethylphenyl)-beta-[(2,2-dimethylpropoxy)methyl]-N-(phenylmethyl)-1-pyrrolidineethanamine Hydrochloride] | 2.8 |  | -21 mm of Hg | 
7 | COc1ccc(CN(CC(COCC(C)(C)C)N2CCCC2)c2c(Cl)cccc2Cl)cc1OC.Cl (stereo not drawn) [Example 5, N-(2,6-Dichlorophenyl)-N-[(3,4-dimethoxyphenyl)methyl]-beta-[(2,2-dimethylpropoxy)methyl]-1-pyrrolidineethanamine-Hydrochloride (1:1)] | 1 |  | -15 mm of Hg | 
8 | CC(C)(C)COCC(CN(Cc1ccccc1)c1c(Cl)cccc1Cl)N1CCCC1 (stereo not drawn) [Example 6, N-(2,6-Dichlorophenyl)-beta-[(2,2-dimethylpropoxy)methyl]-N-(phenylmethyl)-1-pyrrolidineethanamine Hydrochloride (1:1)] | 7.3 |  | -33 mm of Hg | 
9 | COc1cccc(N(Cc2ccccc2)CC(COCC(C)(C)C)N2CCCC2)c1.O=C(O)/C=C/C(=O)O (stereo not drawn) [Example 2d, beta-[(2,2-Dimethylpropoxy)methyl]-N-(3-methoxyphenyl)-N-(phenylmethyl)-1-pyrrolidineethanamine (E)-2-Butenedioate (1:1)] | 29 |  | -29 mm of Hg | 
10 | CC(C)(C)COCC(CN(Cc1ccncc1)c1c(Cl)cccc1Cl)N1CCCC1.Cl.Cl (stereo not drawn) [Example 7, N-(2,6-Dichlorophenyl)-beta-[(2,2-dimethylpropoxy)methyl]-N-(4-pyridinylmethyl)-1-pyrrolidineethanamine Dihydrochloride] | 28 |  | -37 mm of Hg | 
11 | CC(C)(C)COCC(CN(CC1CCCCC1)c1c(Cl)cccc1Cl)N1CCCC1 (stereo not drawn) [Example 12, N-(Cyclohexylmethyl)-N-(2,6-dichlorophenyl)-beta-[(2,2-dimethylpropoxy)methyl]-1-pyrrolidineethanamine (E)-2-Butenedioate Hydrate (20:25:2)] | 3 |  | -25 mm of Hg | 
12 | N-(2,6-Dichlorophenyl)-N-(phenylmethyl)-alpha-[[(tricyclo-[3.3.1.1^3,7]dec-1-yl)methoxy]methyl]-1-pyrrolidineethanamine Hydrochloride (1:1) [Example 11c] |  |  | -41 mm of Hg | Langendorff EC30 [1]: .010 10^-6 M
13 | CN(C)c1ccc(CN(CC(COCC(C)(C)C)N2CCCC2)c2c(Cl)cccc2Cl)cc1 (stereo not drawn) [Example 4c, N-(2,6-Dichlorophenyl)-N-[[4-(dimethylamino)phenyl]methyl]beta-[(2,2-dimethylpropoxy)methyl]-1-pyrrolidineethanamine Hydrochloride Hydrate (7:7:1)] | 1.6 | -23 mm of Hg | -14 mm of Hg | 
